In the supplement of paper PMC10307832:

Key:
Experiment in all cases: relative viability (nuclei count vs DMSO), 5 days (fraction); higher = more cells survive
[1] = compound: CCN1C(=O)C2=CC(=C(N=C2N(C1=O)C3CC3)N)C(=O)N + CC(=O)Nc1cccc(-n2c(=O)n(C3CC3)c(=O)c3c(Nc4ccc(I)cc4F)n(C)c(=O)c(C)c32)c1 [Trametinib] (partner 0.02 µM)
Procedure, shortened: (§1)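 Relative viability was taken as the ratio of nuclei in treated wells to nuclei in vehicle wells. Lung cancer cell lines in 1536-well plates received compounds by pin tool one day after seeding, either one drug alone or a fixed anchor-drug dose plus five library-drug doses (not always all listed) in √10 steps. Nuclei were counted on 4× images after 5 days of treatment, and values are medians of duplicate plates.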

[2] = compound: CCN1C(=O)C2=CC(=C(N=C2N(C1=O)C3CC3)N)C(=O)N + CCNC(=O)c1noc(-c2cc(C(C)C)c(O)cc2O)c1-c1ccc(CN2CCOCC2)cc1 [Luminespib] (partner 0.01 µM)
Procedure, shortened: as §1

[3] = compound: CCN1C(=O)C2=CC(=C(N=C2N(C1=O)C3CC3)N)C(=O)N + COc1cccc2cc(-c3nc([C@H]4CC[C@H](C(=O)O)CC4)n4ncnc(N)c34)[nH]c12 [OSI-027] (partner 0.5 µM)
Procedure, shortened: as §1

[4] = compound: CCN1C(=O)C2=CC(=C(N=C2N(C1=O)C3CC3)N)C(=O)N + NC(=O)Nc1cc(-c2cccc(F)c2)sc1C(=O)N[C@H]1CCCNC1 [AZD7762] (partner 0.2 µM)
Procedure, shortened: as §1

[5] = compound: CCN1C(=O)C2=CC(=C(N=C2N(C1=O)C3CC3)N)C(=O)N + O=C(CCCCCCC(=O)Nc1ccccc1)NO [Vorinostat] (partner 1 µM)
Procedure, shortened: as §1

Cell Line	relative viability ([1]; first compound 0.253 µM)	relative viability ([1]; first compound 0.8 µM)	relative viability ([1]; first compound 2.53 µM)	relative viability ([1]; first compound 8 µM)	relative viability ([2]; first compound 0.253 µM)	relative viability ([2]; first compound 0.8 µM)	relative viability ([2]; first compound 2.53 µM)	relative viability ([2]; first compound 8 µM)	relative viability ([3]; first compound 0.253 µM)	relative viability ([3]; first compound 0.8 µM)	relative viability ([3]; first compound 2.53 µM)	relative viability ([3]; first compound 8 µM)	relative viability ([4]; first compound 0.253 µM)	relative viability ([4]; first compound 0.8 µM)	relative viability ([4]; first compound 2.53 µM)	relative viability ([4]; first compound 8 µM)	relative viability ([5]; first compound 0.253 µM)	relative viability ([5]; first compound 0.8 µM)	relative viability ([5]; first compound 2.53 µM)	relative viability ([5]; first compound 8 µM)
201T	0.744	0.702	0.686	0.724	1.06	1.04	1.02	1.08	0.431	0.729	0.761	0.667	0.609	0.677	0.64	0.615	0.92	0.982	0.945	0.973
A-427	0.827	0.7	0.7	0.767	1.13	1.26	1.24	1.13	0.46	0.487	0.49	0.466	0.73	0.791	0.731	0.789	0.923	0.926	0.842	0.852
ABC-1	–	–	–	–	0.869	0.4	0.639	0.518	0.438	0.474	0.538	0.469	0.479	–	1.15	0.954	1.11	–	1.81	1.11
BEN	0.915	0.937	1.11	1.05	0.469	0.427	0.377	0.351	0.297	0.321	0.273	0.295	0.789	0.568	0.864	0.689	0.608	0.641	0.63	0.625
CAL-12T	0.42	0.354	0.386	0.328	0.294	0.792	0.193	0.436	0.689	0.478	0.543	0.512	0.619	0.479	0.664	0.567	0.771	0.642	0.659	0.803
COR-L23	0.581	0.584	0.591	0.592	0.697	0.653	0.657	0.765	0.883	0.819	0.743	0.867	–	–	–	–	0.413	0.393	0.446	0.343
COR-L 105	0.478	0.428	0.378	0.47	0.807	0.737	0.623	0.641	0.873	0.729	0.634	0.651	–	–	–	–	0.902	0.779	0.688	0.819
ChaGo-K-1	0.922	0.951	0.861	0.875	0.541	0.508	0.636	0.53	0.516	0.518	0.683	0.502	0.873	0.863	0.89	0.872	0.793	0.764	0.72	0.748
EKVX	0.378	0.359	0.372	0.371	0.94	0.952	0.772	0.722	0.803	0.751	0.675	0.498	0.824	0.701	0.749	0.698	0.881	0.589	0.716	0.594
EMC-BAC-2	0.871	–	0.766	0.9	1.29	1.08	1.03	1.19	0.474	0.336	0.33	0.379	1.18	–	1.04	1.14	0.992	–	0.782	0.67
EPLC-272H	0.261	0.239	0.327	0.298	0.253	0.227	0.465	0.445	0.277	0.258	0.266	0.277	0.229	0.206	0.278	0.193	–	0.538	0.411	0.477
H3255	0.587	0.578	0.567	0.636	0.834	0.773	0.883	0.932	0.57	0.57	0.577	0.994	0.884	0.922	0.919	0.832	0.838	0.688	0.819	0.831
HARA	0.513	0.914	0.56	0.545	0.706	0.671	0.843	0.929	0.415	0.576	0.473	0.54	0.661	0.304	0.296	0.315	0.563	0.5	0.57	0.552
HCC-15	0.412	0.382	0.369	0.429	0.231	0.7	0.395	0.452	0.648	0.72	0.685	0.663	1.18	1.45	1.18	1.31	0.885	0.785	0.869	0.815
HCC-44	1.18	0.975	1.06	1.04	0.934	0.905	1.17	1.04	0.568	0.446	0.527	0.421	1.03	0.993	0.977	0.991	1.13	1.05	1.06	1.04
HCC-78	0.706	0.733	0.812	0.788	–	–	–	–	0.434	–	0.354	0.387	0.56	0.592	0.626	0.735	0.451	0.437	0.437	0.462
HCC-366	0.416	0.433	0.348	0.343	–	–	–	–	–	0.938	0.877	0.743	0.395	0.312	0.41	0.231	0.363	0.384	0.297	0.277
HCC-827	0.525	0.538	0.537	0.544	0.77	0.588	0.459	0.866	0.778	0.771	0.793	0.794	0.165	0.193	0.25	0.207	0.498	0.709	1	0.819
HOP-62	0.312	0.376	0.333	0.416	1.03	0.899	0.926	0.945	0.96	0.919	0.795	0.883	0.727	0.566	0.617	0.899	0.622	0.71	0.58	0.579

Cell Line	relative viability ([1]; first compound 0.253 µM)	relative viability ([1]; first compound 0.8 µM)	relative viability ([1]; first compound 2.53 µM)	relative viability ([1]; first compound 8 µM)	relative viability ([2]; first compound 0.253 µM)	relative viability ([2]; first compound 0.8 µM)	relative viability ([2]; first compound 2.53 µM)	relative viability ([2]; first compound 8 µM)	relative viability ([3]; first compound 0.253 µM)	relative viability ([3]; first compound 0.8 µM)	relative viability ([3]; first compound 2.53 µM)	relative viability ([3]; first compound 8 µM)	relative viability ([4]; first compound 0.253 µM)	relative viability ([4]; first compound 0.8 µM)	relative viability ([4]; first compound 2.53 µM)	relative viability ([4]; first compound 8 µM)	relative viability ([5]; first compound 0.253 µM)	relative viability ([5]; first compound 0.8 µM)	relative viability ([5]; first compound 2.53 µM)	relative viability ([5]; first compound 8 µM)
IA-LM	–	–	–	–	–	–	–	–	–	–	–	–	–	–	–	–	0.983	0.873	0.905	1.1
LC-2-ad	0.918	0.865	0.845	0.871	0.926	0.938	1.12	1.11	0.693	0.808	0.759	0.829	0.866	0.771	0.853	0.834	0.663	0.754	0.698	0.721
LCLC-97TM1	0.194	0.217	0.203	0.182	0.678	0.845	0.766	0.799	0.466	0.371	0.441	0.56	0.242	0.155	0.267	0.175	0.711	0.752	0.634	0.773
LCLC-103H	0.741	0.663	0.705	0.662	0.916	0.956	0.958	1.12	0.411	0.475	0.49	0.399	0.76	0.83	0.768	0.838	0.798	0.806	0.761	0.817
LK-2	0.756	0.715	0.727	0.795	0.181	0.202	0.175	0.199	0.19	0.196	0.181	0.2	0.516	0.348	0.359	0.608	0.286	0.377	0.307	0.302
NCI-H520	0.65	0.692	0.657	0.676	0.236	0.201	0.246	0.3	0.296	0.315	0.346	0.304	–	–	–	–	0.719	0.655	0.717	0.817
NCI-H661	0.591	0.567	0.546	0.561	0.922	0.904	0.898	0.904	0.773	0.742	0.681	0.677	–	–	–	–	0.758	0.788	0.748	0.803
NCI-H1563	–	–	–	–	0.538	0.509	0.573	0.542	0.743	0.805	0.759	0.795	–	–	–	–	–	–	–	–
NCI-H1650	0.572	0.571	0.563	0.611	0.185	0.196	0.162	0.186	0.577	0.444	0.629	0.544	–	–	–	–	0.562	0.614	0.494	0.622
NCI-H1703	–	–	–	–	–	–	–	–	–	–	–	–	0.13	0.126	0.164	0.137	–	–	–	–
NCI-H1792	0.457	0.332	0.346	0.39	0.586	0.4	0.541	0.419	0.69	0.696	0.733	0.651	0.779	0.624	0.693	0.508	–	–	–	–
NCI-H2009	0.274	0.271	0.262	0.281	1.02	1.08	0.943	0.916	0.634	0.622	0.619	0.621	–	–	–	–	0.732	0.647	0.62	0.663
NCI-H2023	0.587	0.61	0.503	0.589	0.857	0.726	0.781	0.792	0.449	0.365	0.386	0.34	–	–	–	–	0.628	0.58	0.68	0.712
NCI-H2228	0.37	0.597	0.359	0.594	0.132	0.167	0.203	0.11	0.557	0.674	0.633	0.645	–	–	–	–	0.933	0.572	0.676	0.679
SK-LU-1	0.482	0.555	0.516	0.489	0.177	0.201	0.194	0.215	0.414	0.381	0.353	0.369	–	–	–	–	0.699	0.755	0.773	0.876
SK-MES-1	0.625	0.533	0.557	0.517	0.774	0.591	0.793	0.945	0.626	0.564	0.588	0.583	–	–	–	–	1.04	1.01	1.04	1.08
SW 1573	0.548	0.601	0.599	0.52	0.191	0.377	0.303	0.427	0.534	0.612	0.675	0.587	–	–	–	–	0.824	0.848	0.624	0.682
UMC-11	0.798	0.701	0.695	0.636	0.914	1.02	1.08	1.17	0.5	0.463	0.506	0.521	–	–	–	–	0.415	0.34	0.373	0.408
